In US10675366B2, “Imaging tumor glycolysis by non-invasive measurement of pyruvate kinase M2” (The Board of Trustees of the Leland Stanford Junior …, priority 2016, dated 2020):

Experiments:
PKM2 = PKM2 (Homo sapiens, UniProt P14618); conditions: cited from earlier work; for AC50: read-out: AC50 (PKM2 activation); for selectivity for PKM2 versus other pyruvate kinase isozymes: versus PKM1, PKR and PKL
[1] = test system: orthotopically growing human glioblastoma; conditions: mouse models; cited from earlier work
[2] = In vitro serum stability, human serum; assay type: in vitro ADME; conditions: up to 120 min
Procedure: (§1) In Vitro Serum Stability Studies: Human and mouse serum (Sigma-Aldrich) were centrifuged at 4° C., with speed of 13,000 rpm for 10 min. Formulated [^18F]DASA-23 (130-150 μCi, 20 μl volume) was added to 330 μl of supernatant. For control, the same volume of radiolabeled compound in 330 μl PBS was used. After vortexing the radiolabeled mixtures, 70 μl aliquots were incubated at 37° C. At predetermined time points (0, 15, 30, 60, and 120 min), 140 μl of ice-cold acetonitrile was added to corresponding samples to stop metabolism. After vortexing and centrifuging samples (10 min, 13,000 rpm), the supernatants were analyzed by analytical HPLC using the same conditions described above.

[3] = test system: orthotopic U87 GBM tumors; assay: PET/CT/MR imaging and ex vivo autoradiography of mice bearing orthotopic U87 tumors; assay type: in vivo, mouse
Procedure: FIG. 10 illustrates non-invasive imaging of mice bearing orthotopic U87 tumor showing representative T2-weighted MR image and fused PET/CT/MR (10 to 30 min summed activity) of a mouse head bearing an orthotopically grown U87 tumor, white arrows indicate the tumor.
FIG. 11 illustrates non-invasive imaging of mice bearing orthotopic U87 tumor showing an ex vivo autoradiography of coronal mouse brain sections.
FIG. 12B illustrates non-invasive imaging of mice bearing orthotopic U87 tumor showing orthotopic U87 tumor and corresponding contralateral normal brain TAC taken from dynamic [^18F]DASA-23 PET/CT images. Data are means±SD (n=6 animals), ***p<0.001.
PET/MR co-registration confirmed precise correspondence of the [^18F]DASA-23 signal with the location of the intracranial tumors, further confirmed ex vivo by autoradiography.

[4] = In vitro serum stability, mouse serum; assay type: in vitro ADME; conditions: up to 120 min
Procedure: as §1

HeLa cells = assay: Cell uptake of [18F]DASA-23 in HeLa cells; assay type: cell-based, human
Procedure: Cell Uptake Studies: HeLa cells (0.5×106) were plated into 6-well plates overnight before [^18F]DASA-23 uptake analysis. On the day of the experiment, fresh, prewarmed DMEM containing 25 μCi of [^18F]DASA-23 was added to individual wells (1 ml per well). Cells were incubated with [^18F]DASA-23 at 37° C. and 5% CO2 over a 60 min time course. […] At the specified time points, incubation plates were put on ice, washed with ice-cold phosphate-buffered saline (PBS) (3×500 μl), and lysed in radioimmunoprecipitation assay buffer (Thermo Fisher Scientific Inc.; 500 μl). A portion of the cell lysates (200 μl) were used to determine the amount of decay-corrected radioactivity on a gamma counter (Cobra II Auto-Gamma Counter; Packard Biosciences Co.). The remaining cell lysate was used post radioactive decay for determination of protein concentration using a bicinchoninic acid (BCA) assay (Thermo Fisher Scientific Inc.). Additionally, 10 μl standards from the solution of [^18F]DASA-23 in DMEM (25 μCi/mi) were counted to quantitate the percentage of radiotracer uptake. For efflux studies, HeLa cells were incubated with [^18F]DASA-23 for 60 min and then washed with room temperature Hanks' buffered salt solution (3×500 μl); a subsequent incubation was then completed at 37° C. in fresh, prewarmed radiotracer-free DMEM. At the specified times, samples were processed as described above.

Chain of PKM2 (P14618 whole entry, species assumed): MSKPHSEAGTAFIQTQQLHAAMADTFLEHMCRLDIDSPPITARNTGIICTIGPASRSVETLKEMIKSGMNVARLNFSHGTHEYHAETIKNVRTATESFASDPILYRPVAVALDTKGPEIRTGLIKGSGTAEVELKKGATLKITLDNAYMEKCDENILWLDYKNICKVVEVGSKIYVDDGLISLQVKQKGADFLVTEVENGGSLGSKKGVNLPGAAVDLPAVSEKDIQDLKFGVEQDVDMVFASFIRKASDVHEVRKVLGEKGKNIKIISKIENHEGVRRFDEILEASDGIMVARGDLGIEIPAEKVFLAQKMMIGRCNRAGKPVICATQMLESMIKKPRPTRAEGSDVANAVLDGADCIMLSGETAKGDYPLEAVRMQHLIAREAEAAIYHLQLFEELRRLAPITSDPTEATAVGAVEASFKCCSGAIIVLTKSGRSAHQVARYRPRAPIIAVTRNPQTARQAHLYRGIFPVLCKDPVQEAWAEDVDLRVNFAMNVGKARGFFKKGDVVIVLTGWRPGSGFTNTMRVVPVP

Row | SMILES | AC50 (PKM2) [nM] | selectivity for PKM2 versus other pyruvate kinase isozymes (PKM2) | detection of PKM2-expressing tumor in vivo [1] | percentage of intact tracer ([2]; 37° C.) [%] | serum stability [2] | tumor delineation by dynamic PET imaging ([3]; orthotopic U87 GBM tumors vs surrounding normal brain, n=6 mice) | tumor uptake in blocking study (autoradiography) ([3]; pre-treatment with TEPP-46 (50 mg/kg) 60 min prior to tracer) | percentage of intact tracer ([4]; 37° C.) [%] | serum stability [4] | cell uptake (HeLa cells; 30 min) | cell uptake (HeLa cells; 60 min)
1 | COc1ccc(S(=O)(=O)N2CCN(S(=O)(=O)c3c(F)cccc3F)CC2)cc1 [DASA-23, reference compound] | 90 | selectivity for PKM2 relative to other PK enzymes | – | – | – | – | – | – | – | – | –
2 | [11CH3]Oc1ccc(S(=O)(=O)N2CCN(S(=O)(=O)c3c(F)cccc3F)CC2)cc1 [[^11C]DASA-23] | – | – | successfully detected orthotopically growing human glioblastoma | – | – | – | – | – | – | – | –
3 | COc1ccc(S(=O)(=O)N2CCN(S(=O)(=O)c3c(F)cccc3[18F])CC2)cc1 [[^18F]DASA-23, 1-((2-Fluoro-6-(Fluoro-^18F)Phenyl)Sulfonyl)-4-((4-Methoxyphenyl)Sulfonyl)Piperazine] | 90 | selective activation of PKM2 | – | 95.7 | stable | clearly delineated from the surrounding normal brain tissue | dramatic reduction in tumor uptake | 95.8 | stable | 11.4±2.2 % of total tracer/mg protein | 21.0±2.0 % of total tracer/mg protein
